Article PMC6408443, “Structural determinants of lipid specificity within Ups/PRELI lipid transfer proteins” (Nature Communications, 2019)
Numbering of substitutions follows the chain as printed.

Legend:
Experiment in all cases: liposome lipid transfer, NBD dequenching
Type in all cases: biochemical
PRELID1–TRIAP1 [1] = target: T1, PRELID1–TRIAP1 (Homo sapiens, UniProt Q9Y255, K58T); settings: labelled compound; 120 nM complex, 12.5 µM donor and 50 µM acceptor liposomes, pH 7.4, 20 °C
T1 construct: N-His-tagged PRELID1 co-expressed with TRIAP1 from pETDuet-1 in E. coli; heterodimer

Ups1–Mdm35 [2] = target: T2, Ups1–Mdm35 (Saccharomyces cerevisiae, UniProt Q05776, K58V); settings: labelled compound; 50 nM complex, 12.5 µM donor and 50 µM acceptor liposomes, pH 7.4, 20 °C
T2 construct: N-terminally His-tagged Ups1 with Mdm35, E. coli S30 cell-free expression; heterodimer; with Mitochondrial distribution and morphology protein 35
T2 sequence (Q05776 1-175 K58V): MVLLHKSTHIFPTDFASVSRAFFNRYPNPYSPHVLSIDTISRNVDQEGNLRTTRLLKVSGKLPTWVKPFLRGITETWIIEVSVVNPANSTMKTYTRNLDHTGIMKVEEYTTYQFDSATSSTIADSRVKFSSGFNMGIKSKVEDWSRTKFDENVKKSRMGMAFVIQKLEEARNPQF
T2 sequence (O60200 1-86 partner): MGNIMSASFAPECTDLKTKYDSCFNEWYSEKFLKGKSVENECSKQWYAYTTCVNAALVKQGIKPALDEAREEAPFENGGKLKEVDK

PRELID1–TRIAP1 [3] = target: T3, PRELID1–TRIAP1 (Homo sapiens, UniProt Q9Y255, K58V); settings: labelled compound; 120 nM complex, 12.5 µM donor and 50 µM acceptor liposomes, pH 7.4, 20 °C
T3 construct: N-His-tagged PRELID1 co-expressed with TRIAP1 from pETDuet-1 in E. coli; heterodimer

Ups2Δ174–Mdm35 = target: T4, Ups2Δ174–Mdm35 (Saccharomyces cerevisiae, UniProt P35200); settings: labelled compound, 50 nM complex, 12.5 µM donor and 50 µM acceptor liposomes, pH 7.4, 25 °C
T4 construct: gene UPS2; N-His Ups2 truncated after W174, with Mdm35, E. coli Rosetta-gami2; with Mitochondrial distribution and morphology protein 35
T4 sequence (P35200 1-174): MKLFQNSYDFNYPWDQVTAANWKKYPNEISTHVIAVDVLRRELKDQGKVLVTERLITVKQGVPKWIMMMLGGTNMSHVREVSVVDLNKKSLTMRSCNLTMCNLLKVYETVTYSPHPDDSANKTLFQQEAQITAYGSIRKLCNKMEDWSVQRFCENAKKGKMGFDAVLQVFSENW
T4 sequence (O60200 1-86 partner): T2 sequence (O60200 1-86 partner)

Ups2 loop-swap variant = target: T5, Ups2 loop-swap variant (Saccharomyces cerevisiae, UniProt P35200); settings: labelled compound; 50 nM complex, 12.5 µM donor and 50 µM acceptor liposomes, pH 7.4, 25 °C
T5 construct: N-His Ups2Δ174 carrying the Ups1 Omega loop (residues 60-71), codon-optimised, with Mdm35, E. coli Rosetta-gami2; with Mitochondrial distribution and morphology protein 35
T5 sequence (P35200 1-174): T4 sequence (P35200 1-174)
T5 sequence (O60200 1-86 partner): T2 sequence (O60200 1-86 partner)

Ups1–Mdm35 [4] = target: T6, Ups1–Mdm35 (Saccharomyces cerevisiae, UniProt Q05776, E108D); settings: labelled compound; 50 nM complex, 12.5 µM donor and 50 µM acceptor liposomes, pH 7.4, 20 °C
T6 construct: N-terminally His-tagged Ups1 with Mdm35, E. coli S30 cell-free expression; heterodimer; with Mitochondrial distribution and morphology protein 35
T6 sequence (Q05776 1-175 E108D): T2 sequence (Q05776 1-175 K58V) with V58K, E108D
T6 sequence (O60200 1-86 partner): T2 sequence (O60200 1-86 partner)

PRELID1–TRIAP1 [5] = target: T7, PRELID1–TRIAP1 (Homo sapiens, UniProt Q9Y255); settings: labelled compound, 12.5 µM donor and 50 µM acceptor liposomes, pH 7.4, 20 °C
T7 construct: N-His-tagged PRELID1 co-expressed with TRIAP1 from pETDuet-1 in E. coli; heterodimer

Ups1–Mdm35 [6] = target: T8, Ups1–Mdm35 (Saccharomyces cerevisiae, UniProt Q05776); settings: labelled compound, 12.5 µM donor and 50 µM acceptor liposomes, pH 7.4, 20 °C
T8 construct: N-terminally His-tagged Ups1 with Mdm35, E. coli S30 cell-free expression; heterodimer; with Mitochondrial distribution and morphology protein 35
T8 sequence (Q05776 1-175): T2 sequence (Q05776 1-175 K58V) with V58K
T8 sequence (O60200 1-86 partner): T2 sequence (O60200 1-86 partner)

T7 sequence (Q9Y255 whole entry): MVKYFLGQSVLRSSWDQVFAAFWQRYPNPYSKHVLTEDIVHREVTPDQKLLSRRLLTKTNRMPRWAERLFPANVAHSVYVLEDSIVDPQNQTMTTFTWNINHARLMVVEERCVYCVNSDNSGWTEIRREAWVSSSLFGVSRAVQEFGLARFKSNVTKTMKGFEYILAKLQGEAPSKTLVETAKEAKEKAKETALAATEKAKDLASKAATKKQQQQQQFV
T7 sequence (O43715 whole entry partner): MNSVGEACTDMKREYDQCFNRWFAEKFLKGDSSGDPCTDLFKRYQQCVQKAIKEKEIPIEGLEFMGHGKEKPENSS
T1 sequence (Q9Y255 whole entry K58T): as the sequence (Q9Y255 whole entry) above, with K58T counted along it
T1 sequence (O43715 whole entry partner): as the sequence (O43715 whole entry partner) above
T3 sequence (Q9Y255 whole entry K58V): as the sequence (Q9Y255 whole entry) above, with K58V counted along it
T3 sequence (O43715 whole entry partner): as the sequence (O43715 whole entry partner) above

## CCCCCCCC/C=C\CCCCCCCC(=O)OC[C@H](COP(=O)(O)OC[C@H](N)C(=O)O)OC(=O)CCCCCCCCCCCNc1ccc([N+](=O)[O-])c2nonc12 [NBD-PS]
PRELID1–TRIAP1 [1]
  liposome lipid transfer, NBD dequenching: substitution of K58 by valine or threonine substantially increased the ability of PRELID1
Ups1–Mdm35 [2]
  liposome lipid transfer, NBD dequenching: The mutations K58V or E108D in Ups1 increased PS transport
PRELID1–TRIAP1 [3]
  liposome lipid transfer, NBD dequenching: substitution of K58 by valine or threonine substantially increased the ability of PRELID1
Ups2Δ174–Mdm35
  liposome lipid transfer, NBD dequenching: PS transfer by Ups2 and loop-swap variant
Ups2 loop-swap variant
  liposome lipid transfer, NBD dequenching: its ability to transfer PS was significantly reduced
Ups1–Mdm35 [4]
  liposome lipid transfer, NBD dequenching: The mutations K58V or E108D in Ups1 increased PS transport
PRELID1–TRIAP1 [5]; 120 nM complex, low activity
  liposome lipid transfer, NBD dequenching: PRELID1 showed a low PS transfer activity, similar to Ups1
Ups1–Mdm35 [6]; 50 nM complex, inefficient substrate
  liposome lipid transfer, NBD dequenching: Ups1–Mdm35 complexes transferred PS only inefficiently when compared to PA

## CCCCCCCC/C=C\CCCCCCCC(=O)OC[C@H](COP(=O)(O)O)OC(=O)CCCCCCCCCCCNc1ccc([N+](=O)[O-])c2nonc12 [NBD-PA]
Ups2Δ174–Mdm35; inefficient substrate
  liposome lipid transfer, NBD dequenching: Ups2–Mdm35 complexes transferred PA only inefficiently when compared to PS
Ups2 loop-swap variant
  liposome lipid transfer, NBD dequenching: we observed efficient PA transport by the loop-swap variant of Ups2
PRELID1–TRIAP1 [5]
  liposome lipid transfer, NBD dequenching: While efficiently mediating the transfer of PA, PRELID1 showed a low PS transfer activity
Ups1–Mdm35 [6]; 12.5 nM complex
  liposome lipid transfer, NBD dequenching: PA transfer of wildtype (WT) and mutant Ups1–Mdm35 complexes in vitro
